Like-named read-outs stand apart in the source and are kept apart here.
What was measured:
[1] = system: human platelet-rich plasma; assay: Aggregation test of human platelet-rich plasma; assay type: cell-based; conditions: for IC50: Homo sapiens, Platelet
Procedure: C. Platelet aggregation and ATP release reaction test
The method reported by Born (J. Physiol. 168, 178, 1963) was used to determine the platelet aggregation by a Lumi-aggregometer (Model 1020, Payton, Canada). Platelet suspension (0.4 ml) was added into a small glass tube coated with silicone, and stirred at 900 rpm with a small magnetic stirrer. Unless otherwise specified, the antagonist was added 1 minute before the inducing agent, and all the reactions were carried out at 37° C. The aggregation was calculated by following formula: […]
aggregation (% )=(light absorption before adding inducing agent-light absorption after adding inducing agent)/(light absorption before adding inducing agent-light absorption of Tyrode solution)×100%
(5 μM), Adrenaline (10 μM),

thromboxane B2 formation = assay: Thromboxane B2 formation caused by arachidonic acid (AA); assay type: cell-based; conditions: for Thromboxane B2: caused by AA
PGE2 formation = assay: Prostaglandin E2 formation caused by arachidonic acid (AA); assay type: cell-based; conditions: for Prostaglandin E2: caused by AA
cAMP formation = cAMP formation caused by arachidonic acid (AA); assay type: cell-based; conditions: for cAMP: caused by AA
guinea-pig trachea = molecular target: T1, guinea-pig trachea (Cavia porcellus, UniProt A0A286Y4I8); assay: Guinea-pig tracheal contraction caused by U-46619; assay type: cell-based; conditions: for activity at 10 µM / activity at 30 µM / activity at 100 µM: guinea pig, read-out: Contraction (% of maximal contraction); for activity at 10 µM: cinnamophilin 10 μM; for activity at 30 µM: cinnamophilin 30 μM; for activity at 100 µM: cinnamophilin 100 μM
T1 construct: Tracheae from guinea-pigs were dissected out; from tissue; host or cells: guinea-pig trachea
T1 sequence (A0A286Y4I8 1-347): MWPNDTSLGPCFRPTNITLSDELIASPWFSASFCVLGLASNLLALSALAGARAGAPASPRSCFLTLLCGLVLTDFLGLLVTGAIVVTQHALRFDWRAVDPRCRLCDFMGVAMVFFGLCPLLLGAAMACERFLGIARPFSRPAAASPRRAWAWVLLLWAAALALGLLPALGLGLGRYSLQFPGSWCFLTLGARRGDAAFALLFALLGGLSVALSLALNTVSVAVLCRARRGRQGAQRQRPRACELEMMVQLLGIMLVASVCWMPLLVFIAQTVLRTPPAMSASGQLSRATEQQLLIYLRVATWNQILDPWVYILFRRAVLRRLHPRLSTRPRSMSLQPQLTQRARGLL
Procedure: B. Guinea-pig tracheal contraction
Tracheae from guinea-pigs were dissected out, transferred to a dish containing Krebs solution and cut transversely between the segments of cartilage. Several of these, usually about 5, were tied together so as to form a chain, which was then mounted in Krebs solution at 37° C., gassed with 95% O2 plus 5% CO2. One end of the chain was attached to a fixed pin in the bath and the other to a transducer connected to a Grass polygraph. Resting tension of each tissue was set at 1 g, Tracheae were allowed to equilibrate for at least 1 hr and washed-periodically.
Cumulative concentration-response curves were obtained by application of various concentrations of spasmogens for 15-18 min at 3 minutes intervals. Tracheal rings were pre-incubated with cinnamophilin for 15 min, then various concentrations of spasmogens were added for 15-18 min at 3 min intervals. Results were expressed as percentage of the maximal control response for each agonist.

rat thoracic aorta = assay: Rat aortic contraction caused by norepinephrine and high potassium (KCl); assay type: cell-based, Wistar rat; conditions: for K+ contraction (%), Tonic: K+ (80 mM); for K+ contraction (%), Tonic / norepinephrine contraction (%), Phrase (phasic) / norepinephrine contraction (%), Tonic: 15 min; for norepinephrine contraction (%), Phrase (phasic) / norepinephrine contraction (%), Tonic: norepinephrine 3 μM
Procedure: A. Rat Aortic Contraction
Wistar rats of either sex weighing 250 g to 300 g were killed by a blow to the head. The thoracic aorta was isolated and excess fat and connective tissue were removed. Vessels were cut into rings of about 5 mm in length and mounted in organ baths containing 5 ml Krebs solution of the following composition (mM): NaCl (118.4), KCl (4.7), CaCl (1.9), MgSO4 (1.2), KH2 PO4 (1.2), NaHCO3 (25.0) and glucose (11.7). The tissue bath solution was maintained at 37° C. and gassed with 95% O2 :5% CO2 mixture. Two stainless steel hooks were inserted into the aortic lumen, one was fixed while the other was connected to a transducer. Aortae were equilibrated in the medium for 90 min with three changes of Krebs solution and maintained under an optimal tension of 1 g before specific experimental protocols were initiated.
Contraction was recorded isometrically via a force-displacement transducer connected to a Grass polygraph. Aortae were allowed to preincubate for 15 minutes with cinnamophilin before generating the cumulative concentration-response curve with each agonist for 15-30 min at 3 min intervals. Results are expressed as a percentage of the maximal control response for each agonist.
Rat aorta ring were preincubated with lignans or DMSO (0.1% control) at
37° C. for 15 min, then the inducer was added.

TX synthase = assay: Large scale screening test: TX synthase inhibition; assay type: biochemical

COc1cc(CC(C)C(C)C(=O)c2ccc(O)c(OC)c2)ccc1O (stereo not drawn) [Compound 1, cinnamophilin]
IC50 ([1]; human platelet-rich plasma, inducer A-23187 5 μM, read-out: IC50, platelet aggregation): > 30 µM | IC50 ([1]; human platelet-rich plasma, inducer ADP 5 μM, First Phrase, read-out: IC50, platelet aggregation, first phase): > 30 µM | IC50 ([1]; human platelet-rich plasma, inducer ADP 5 μM, Second Phrase, read-out: IC50, platelet aggregation, second phase): 6 ± 0.6 µM | IC50 ([1]; human platelet-rich plasma, inducer U-46619 1 μM, read-out: IC50, platelet aggregation): 3 ± 0.4 µM | IC50 ([1]; human platelet-rich plasma, inducer adrenaline 10 μM, First Phrase, read-out: IC50, platelet aggregation, first phase): > 30 µM | IC50 ([1]; human platelet-rich plasma, inducer adrenaline 10 μM, Second Phrase, read-out: IC50, platelet aggregation, second phase): 7.6 ± 0.9 µM | IC50 ([1]; human platelet-rich plasma, inducer arachidonic acid (AA) 800 μM, read-out: IC50, platelet aggregation): 5 ± 0.4 µM | IC50 ([1]; human platelet-rich plasma, inducer collagen, read-out: IC50, platelet aggregation): 5.6 ± 0.6 µM | inhibition of U-46619 induced platelet aggregation ([1]; U-46619): potential inhibition | inhibition of second phase aggregation ([1]; human platelet-rich plasma, ADP and adrenaline): inhibit second phase aggregation | inhibition of platelet aggregation ([1]; induced by AA, ADP, collagen, U-46619, A-23187): potentially to inhibit the platelet aggregation | TXA2 formation caused by AA (thromboxane B2 formation; 0.03-10 μM): inhibit markedly the TXA2 formation | Thromboxane B2 (thromboxane B2 formation; conc 0.01 μM): 371 ± 35 ng/mL | Thromboxane B2 (thromboxane B2 formation; conc 0.03 μM): 278 ± 25 ng/mL | Thromboxane B2 (thromboxane B2 formation; conc 0.1 μM): 200 ± 41 ng/mL | Thromboxane B2 (thromboxane B2 formation; conc 0.3 μM): 128 ± 25 ng/mL | Thromboxane B2 (thromboxane B2 formation; conc 1 μM): 69 ± 25 ng/mL | Thromboxane B2 (thromboxane B2 formation; conc 3 μM): 28 ± 10 ng/mL | Thromboxane B2 (thromboxane B2 formation; conc 10 μM): 20 ± 5 ng/mL | PGE2 level (PGE2 formation; 0.03-10 μM, AA): increase PGE2 and cAMP levels | Prostaglandin E2 (PGE2 formation; conc 0.01 μM): 40 ± 10 ng/mL | Prostaglandin E2 (PGE2 formation; conc 0.03 μM): 75 ± 15 ng/mL | Prostaglandin E2 (PGE2 formation; conc 0.1 μM): 115 ± 15 ng/mL | Prostaglandin E2 (PGE2 formation; conc 0.3 μM): 155 ± 29 ng/mL | Prostaglandin E2 (PGE2 formation; conc 1 μM): 205 ± 19 ng/mL | Prostaglandin E2 (PGE2 formation; conc 3 μM): 245 ± 20 ng/mL | Prostaglandin E2 (PGE2 formation; conc 10 μM): 2665 ± 21 ng/mL | cAMP level (cAMP formation; 0.03-10 μM, AA): increase PGE2 and cAMP levels | cAMP (cAMP formation; conc 1 μM): 22 ± 3 pmol/mL | cAMP (cAMP formation; conc 3 μM): 29 ± 3 pmol/mL | cAMP (cAMP formation; conc 10 μM): 35 ± 2 pmol/mL | Kb (guinea-pig trachea; against U-46619, read-out: pA2, guinea-pig tracheal contraction induced by U-46619 (converted)): 6.31 µM | activity at 10 µM (guinea-pig trachea; U-46619 0.01 μM): 5.7 ± 2% | activity at 10 µM (guinea-pig trachea; U-46619 0.02 μM): 17.1 ± 4.5% | activity at 10 µM (guinea-pig trachea; U-46619 0.05 μM): 35 ± 5% | activity at 10 µM (guinea-pig trachea; U-46619 0.1 μM): 52 ± 5% | activity at 10 µM (guinea-pig trachea; U-46619 0.2 μM): 70 ± 6% | activity at 10 µM (guinea-pig trachea; U-46619 0.5 μM): 79 ± 4% | activity at 10 µM (guinea-pig trachea; U-46619 1 μM): 85 ± 5% | activity at 10 µM (guinea-pig trachea; U-46619 2 μM): 90 ± 4% | activity at 10 µM (guinea-pig trachea; U-46619 5 μM): 94 ± 4% | activity at 30 µM (guinea-pig trachea; U-46619 0.02 μM): 3% | activity at 30 µM (guinea-pig trachea; U-46619 0.05 μM): 11 ± 3% | activity at 30 µM (guinea-pig trachea; U-46619 0.1 μM): 22 ± 4% | activity at 30 µM (guinea-pig trachea; U-46619 0.2 μM): 35 ± 4% | activity at 30 µM (guinea-pig trachea; U-46619 0.5 μM): 52 ± 5% | activity at 30 µM (guinea-pig trachea; U-46619 1 μM): 67 ± 4% | activity at 30 µM (guinea-pig trachea; U-46619 2 μM): 80 ± 4.5% | activity at 30 µM (guinea-pig trachea; U-46619 5 μM): 88 ± 5% | activity at 30 µM (guinea-pig trachea; U-46619 10 μM): 92 ± 5% | activity at 100 µM (guinea-pig trachea; U-46619 0.05 μM): 0% | activity at 100 µM (guinea-pig trachea; U-46619 0.1 μM): 5 ± 3% | activity at 100 µM (guinea-pig trachea; U-46619 0.2 μM): 15 ± 3% | activity at 100 µM (guinea-pig trachea; U-46619 0.5 μM): 27 ± 4.5% | activity at 100 µM (guinea-pig trachea; U-46619 1 μM): 41 ± 4% | activity at 100 µM (guinea-pig trachea; U-46619 2 μM): 55 ± 5.7% | activity at 100 µM (guinea-pig trachea; U-46619 5 μM): 68 ± 5.7% | activity at 100 µM (guinea-pig trachea; U-46619 10 μM): 78 ± 3% | K+ contraction (%), Tonic (rat thoracic aorta; conc 1 μM): 60.2 ± 1.5% | K+ contraction (%), Tonic (rat thoracic aorta; conc 3 μM): 36.6 ± 4.7% | K+ contraction (%), Tonic (rat thoracic aorta; conc 10 μM): 5.2 ± 2.3% | K+ contraction (%), Tonic (rat thoracic aorta; conc 50 μM): 4.5 ± 3.2% | phasic contractions (rat thoracic aorta; noradrenaline and high potassium (80 mM)): inhibited the phasic contractions | norepinephrine contraction (%), Phrase (phasic) (rat thoracic aorta; conc 3 μM): 121.8 ± 7.2% | norepinephrine contraction (%), Phrase (phasic) (rat thoracic aorta; conc 5 μM): 100.4 ± 9.7% | norepinephrine contraction (%), Phrase (phasic) (rat thoracic aorta; conc 10 μM): 69.3 ± 4.0% | norepinephrine contraction (%), Phrase (phasic) (rat thoracic aorta; conc 50 μM): 65.9 ± 11.3% | norepinephrine contraction (%), Tonic (rat thoracic aorta; conc 3 μM): 90.1 ± 5.5% | norepinephrine contraction (%), Tonic (rat thoracic aorta; conc 5 μM): 77.1 ± 5.7% | norepinephrine contraction (%), Tonic (rat thoracic aorta; conc 10 μM): 27.9 ± 0.5% | norepinephrine contraction (%), Tonic (rat thoracic aorta; conc 50 μM): 14.6 ± 1.5% | TX synthase inhibitory property (TX synthase): TX synthase inhibitory
